Assay results taken from the supplement of paper PMC10307832.

Experiments:
Experiment in all cases: relative viability (nuclei count vs DMSO), 5 days (fraction); higher = more cells survive
RO-3306 + Bortezomib = compound: C1=CC2=C(C=CC(=C2)C=C3C(=O)NC(=NCC4=CC=CS4)S3)N=C1 [RO-3306] + CC(C)C[C@H](NC(=O)[C@H](Cc1ccccc1)NC(=O)c1cnccn1)B(O)O [Bortezomib] (partner 0.002 µM)
Summary of the method: (§1)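 Each reported value is a median over duplicate plates. It expresses relative viability: treated-well nuclei count divided by vehicle-well nuclei count. Lung cancer cell lines in 1536-well plates were dosed by pin tool a day after seeding, alone with one drug or with a fixed anchor-drug dose plus five library-drug doses (not always all listed) in √10 steps, and nuclei were counted after 5 days.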

RO-3306 + Tozasertib = compound: C1=CC2=C(C=CC(=C2)C=C3C(=O)NC(=NCC4=CC=CS4)S3)N=C1 [RO-3306] + Cc1cc(Nc2cc(N3CCN(C)CC3)nc(Sc3ccc(NC(=O)C4CC4)cc3)n2)n[nH]1 [Tozasertib] (partner 0.1 µM)
Summary of the method: as §1

RO-3306 + Olaparib = compound: C1=CC2=C(C=CC(=C2)C=C3C(=O)NC(=NCC4=CC=CS4)S3)N=C1 [RO-3306] + O=C(c1cc(Cc2n[nH]c(=O)c3ccccc23)ccc1F)N1CCN(C(=O)C2CC2)CC1 [Olaparib] (partner 8 µM)
Summary of the method: as §1

[1] = compound: O=S(=O)(c1ccccc1)N(CC(F)(F)F)c1ccc(C(O)(C(F)(F)F)C(F)(F)F)cc1 + COc1cccc2cc(-c3nc([C@H]4CC[C@H](C(=O)O)CC4)n4ncnc(N)c34)[nH]c12 [OSI-027] (partner 0.5 µM)
Summary of the method: as §1

Cell Line	relative viability (RO-3306 + Bortezomib; first compound 0.03162 µM)	relative viability (RO-3306 + Bortezomib; first compound 0.1 µM)	relative viability (RO-3306 + Bortezomib; first compound 0.3162 µM)	relative viability (RO-3306 + Bortezomib; first compound 1 µM)	relative viability (RO-3306 + Tozasertib; first compound 0.01 µM)	relative viability (RO-3306 + Tozasertib; first compound 0.03162 µM)	relative viability (RO-3306 + Tozasertib; first compound 0.1 µM)	relative viability (RO-3306 + Tozasertib; first compound 0.3162 µM)	relative viability (RO-3306 + Tozasertib; first compound 1 µM)	relative viability (RO-3306 + Olaparib; first compound 0.01 µM)	relative viability (RO-3306 + Olaparib; first compound 0.03162 µM)	relative viability (RO-3306 + Olaparib; first compound 0.1 µM)	relative viability (RO-3306 + Olaparib; first compound 0.3162 µM)	relative viability (RO-3306 + Olaparib; first compound 1 µM)	relative viability ([1]; first compound 0.8 µM)	relative viability ([1]; first compound 2.53 µM)	relative viability ([1]; first compound 8 µM)	relative viability (RO-3306 + Bortezomib; first compound 0.01 µM)
NCI-H1993	1.11	1.02	0.887	0.777	0.649	0.582	0.558	0.573	0.605	0.993	0.878	1.02	0.995	0.415	0.58	0.341	0.552	
NCI-H1975	0.358	0.343	0.417	0.243	0.834	0.871	0.769	0.718	0.284	1.07	0.711	0.835	0.918	0.953	0.885	0.641	0.71	0.468
